# Measurements from ChEMBL document CHEMBL1159126, “Salicylanilide carbamates: antitubercular agents active against multidrug-resistant Mycobacterium tuberculosis strains” (Bioorg Med Chem, 2010).
# Key:
# [1] = system: Mycobacterium tuberculosis; assay: microbe, parasite or virus in culture; settings: 331/88, 336 h
# Description: Antimycobacterial activity against Mycobacterium tuberculosis 331/88 after 14 days by micromethod
# [2] = system: Mycobacterium kansasii; assay: Antimycobacterial activity against Mycobacterium kansasii 235/80 after 21 days by micromethod; type: functional; settings: 235/80, 504 h
# [3] = system: Mycobacterium tuberculosis; assay: microbe, parasite or virus in culture; settings: 331/88, 504 h
# Description: Antimycobacterial activity against Mycobacterium tuberculosis 331/88 after 21 days by micromethod
# [4] = Partition coefficient, log P of the compound; type: physicochemical; settings: octanol/water
# [5] = system: Mycobacterium kansasii; assay: Antimycobacterial activity against Mycobacterium kansasii 6509/96 after 14 days by micromethod; type: functional; settings: 6509/96, 336 h
# [6] = system: Mycobacterium kansasii; assay: Antimycobacterial activity against Mycobacterium kansasii 235/80 after 14 days by micromethod; type: functional; settings: 235/80, 336 h
# [7] = system: Mycobacterium avium; assay: Antimycobacterial activity against Mycobacterium avium 330/88 after 21 days by micromethod; type: functional; settings: 330/88, 504 h
# [8] = system: Mycobacterium kansasii; assay: Antimycobacterial activity against Mycobacterium kansasii 6509/96 after 21 days by micromethod; type: functional; settings: 6509/96, 504 h
# [9] = system: Mycobacterium avium; assay: Antimycobacterial activity against Mycobacterium avium 330/88 after 14 days by micromethod; type: functional; settings: 330/88, 336 h
# [10] = Toxicity against human HCT8 cells after 72 hrs by XTT assay; type: cell-based, HCT-8
# [11] = Stability in 100 mM phosphate buffer at pH 6 assessed as compound degradation by HPLC; type: physicochemical
# [12] = Stability in 100 mM phosphate buffer at pH 3 assessed as compound degradation by HPLC; type: physicochemical
# [13] = Stability in 100 mM phosphate buffer at pH 5 assessed as compound degradation by HPLC; type: physicochemical
# [14] = Stability in 100 mM phosphate buffer at pH 8 assessed as compound degradation by HPLC; type: physicochemical
# [15] = Stability in 100 mM phosphate buffer at pH 7 assessed as compound degradation by HPLC; type: physicochemical
# [16] = Stability in 100 mM phosphate buffer at pH 7.4 assessed as compound degradation by HPLC; type: physicochemical
# [17] = Stability in 100 mM phosphate buffer at pH 4 assessed as compound degradation by HPLC; type: physicochemical
SMILES,MIC [1],MIC [2],MIC [3],logP [4],MIC [5],MIC [6],MIC [7],MIC [8],MIC [9],EC50 at 72 h [10],half-life [11],Stability [12],Stability [13],half-life [14],half-life [15],half-life [16],Stability [17]
CCCCCCCCCNC(=O)Oc1ccc(Cl)cc1C(=O)Nc1cccc(Cl)c1,1 µM,4 µM,2 µM,6.78,4 µM,4 µM,4 µM,4 µM,2 µM,–,–,–,–,–,–,–,–
CCCCCCCCCCNC(=O)Oc1ccc(Cl)cc1C(=O)Nc1cccc(Cl)c1,1 µM,8 µM,2 µM,7.19,8 µM,8 µM,8 µM,8 µM,8 µM,–,–,–,–,–,–,–,–
CCCCCCCCCCCNC(=O)Oc1ccc(Cl)cc1C(=O)Nc1ccc(Cl)cc1,2 µM,8 µM,2 µM,7.61,8 µM,8 µM,8 µM,8 µM,8 µM,–,–,–,–,–,–,–,–
CCNC(=O)Oc1ccc(Cl)cc1C(=O)Nc1cccc(Cl)c1,2 µM,8 µM,2 µM,3.79,8 µM,8 µM,8 µM,8 µM,8 µM,–,–,–,–,–,–,–,–
CCCCNC(=O)Oc1ccc(Cl)cc1C(=O)Nc1cccc(Cl)c1,2 µM,16 µM,4 µM,4.69,8 µM,16 µM,16 µM,16 µM,8 µM,–,–,–,–,–,–,–,–
CCCCCCNC(=O)Oc1ccc(Cl)cc1C(=O)Nc1ccc(Cl)c(Cl)c1,0.5 µM,2 µM,0.5 µM,6.08,1 µM,2 µM,8 µM,2 µM,4 µM,27.9 µM,118 h,Stable,Stable,5 h,64 h,43 h,Stable
CCCCCNC(=O)Oc1ccc(Cl)cc1C(=O)Nc1cccc(Cl)c1,2 µM,8 µM,4 µM,5.11,8 µM,8 µM,8 µM,8 µM,8 µM,–,–,–,–,–,–,–,–
CCNC(=O)Oc1ccc(Cl)cc1C(=O)Nc1ccc(Cl)c(Cl)c1,0.5 µM,4 µM,1 µM,4.35,2 µM,2 µM,32 µM,4 µM,16 µM,31 µM,–,–,–,–,–,–,–
CCCCNC(=O)Oc1ccc(Cl)cc1C(=O)Nc1ccc(Cl)c(Cl)c1,0.5 µM,2 µM,1 µM,5.25,2 µM,2 µM,16 µM,4 µM,8 µM,38 µM,–,–,–,–,–,–,–
CCCCCNC(=O)Oc1ccc(Cl)cc1C(=O)Nc1ccc(Cl)c(Cl)c1,0.5 µM,2 µM,0.5 µM,5.67,2 µM,2 µM,16 µM,4 µM,8 µM,40 µM,–,–,–,–,–,–,–
CCNC(=O)Oc1ccc(Cl)cc1C(=O)Nc1ccc(Cl)cc1,1 µM,8 µM,2 µM,3.79,4 µM,4 µM,8 µM,8 µM,8 µM,–,–,–,–,–,–,–,–
CCCCCNC(=O)Oc1ccc(Cl)cc1C(=O)Nc1ccc(Cl)cc1,0.5 µM,4 µM,0.5 µM,5.11,4 µM,2 µM,8 µM,4 µM,8 µM,17.4 µM,–,–,–,–,–,–,–
CCCCCCNC(=O)Oc1ccc(Cl)cc1C(=O)Nc1ccc(Cl)cc1,1 µM,4 µM,2 µM,5.53,2 µM,4 µM,8 µM,4 µM,4 µM,–,–,–,–,–,–,–,–
CCCCCCCCCCCNC(=O)Oc1ccc(Cl)cc1C(=O)Nc1ccc(Cl)c(Cl)c1,2 µM,4 µM,2 µM,8.17,4 µM,4 µM,16 µM,4 µM,16 µM,–,–,–,–,–,–,–,–
